10 compounds from patent US20250034173A1, “PYRIDO[4,3-D]PYRIMIDINE COMPOUNDS” (PFIZER INC., priority 2023, published 2025) can be followed below.

The target in one assay is KRAS G12V (Homo sapiens (Human), UniProt P01116, G12V). In words: SPR binding affinity and kinetics, GTPγS-loaded KRAS G12V. To be noted: GTPγS loaded protein, geomean. The essentials: (§1)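 Binding was measured by SPR. Dissociation was then monitored for no less than 3600 seconds. No additional regeneration step followed. Finally, the fit was checked by c2 and residue distribution randomness.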
(In general: In SPR one partner is held on a chip, and binding of the other changes the refractive index at the surface.)

Another assay addresses NRAS Wild Type (Homo sapiens (Human), UniProt P01111). The assay is described as follows: SPR binding affinity and kinetics, GTPγS-loaded NRAS Wild Type. To be noted: GTPγS loaded protein, geomean. The source says: (§2) No additional regeneration was used.
(§3) Compound dissociation was monitored for at least 3600 seconds. […] No additional regeneration was used.
(§4) The adequateness of the fit was judged by c2 values and the randomness of residue distribution.

Assay [1] deals with PANC08.13 (pancreatic cancer cell line). The assay is described as follows: KRAS Cell Titer Glo (CTG) cell proliferation assay, PANC08.13. The class given is cell-based. To be noted: Homo sapiens, PANC-08-13, 168 h; PANC08.13 cells, 7-day CTG, geomean IC50. In short, it runs like this: (§5)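 Compounds pre-dispensed in 0.1% DMSO before seeding H358 (300 cells/well), SW620 (750) or PANC08.13 (600); 7-day exposure at 37 °C, 5% CO2. Viability by CellTiter-Glo luminescence after 15 min at room temperature. Percent effect normalised to DMSO (0%) and 1 uM trametinib (100%); geomean IC50.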
(In general: In ATP-based viability assays light output follows the ATP content of the culture.)

Another assay deals with KRAS G12D (Homo sapiens (Human), UniProt P01116, G12D). In words: SPR binding affinity and kinetics, GTPγS-loaded KRAS G12D. To be noted: GTPγS loaded protein, geomean. The essentials:
as §1

For another assay, the target named is KRAS Wild Type (Homo sapiens (Human), UniProt P01116). In words: SPR binding affinity and kinetics, GTPγS-loaded KRAS Wild Type. To be noted: GTPγS loaded protein, geomean. In short, it runs like this: as §1
For assay [2], the system named is H358 (non-small cell lung cancer cell line). In words: KRAS Cell Titer Glo (CTG) cell proliferation assay, H358. In kind it is cell-based. The note with it: Homo sapiens, NCI-H358, 168 h; H358 cells, 7-day CTG, geomean IC50. In short, it runs like this: as §5
Another assay concerns the target HRAS Wild Type (Homo sapiens (Human), UniProt P01112). The assay is described as follows: SPR binding affinity and kinetics, GTPγS-loaded HRAS Wild Type. To be noted: GTPγS loaded protein, geomean.
Text: as §2, §3, §4

In another assay the target is KRAS G12C (Homo sapiens (Human), UniProt P01116, G12C). In words: SPR binding affinity and kinetics, GTPγS-loaded KRAS G12C. The note with it: GTPγS loaded protein, geomean. The essentials: as §1
For assay [3], the system named is SW620 (colorectal cancer cell line). The assay is described as follows: KRAS Cell Titer Glo (CTG) cell proliferation assay, SW620. To be noted: Homo sapiens, SW-620, 168 h; SW620 cells, 7-day CTG, geomean IC50. In kind it is cell-based. The essentials:
as §5

Sequence of KRAS G12D (P01116 other isoform, or with tags, fused parts or gaps G12D): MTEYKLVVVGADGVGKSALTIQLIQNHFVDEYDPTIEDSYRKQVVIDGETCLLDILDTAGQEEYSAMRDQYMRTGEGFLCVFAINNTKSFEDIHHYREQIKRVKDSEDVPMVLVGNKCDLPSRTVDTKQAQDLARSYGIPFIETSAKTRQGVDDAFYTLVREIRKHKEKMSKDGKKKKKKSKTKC
Sequence of HRAS Wild Type (P01112 2-184): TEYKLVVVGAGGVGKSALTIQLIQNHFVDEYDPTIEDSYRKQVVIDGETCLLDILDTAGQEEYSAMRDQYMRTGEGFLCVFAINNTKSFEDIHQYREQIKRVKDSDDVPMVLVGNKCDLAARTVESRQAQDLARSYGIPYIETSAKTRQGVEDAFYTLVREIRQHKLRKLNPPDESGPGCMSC
Sequence of KRAS G12C (P01116 other isoform, or with tags, fused parts or gaps G12C): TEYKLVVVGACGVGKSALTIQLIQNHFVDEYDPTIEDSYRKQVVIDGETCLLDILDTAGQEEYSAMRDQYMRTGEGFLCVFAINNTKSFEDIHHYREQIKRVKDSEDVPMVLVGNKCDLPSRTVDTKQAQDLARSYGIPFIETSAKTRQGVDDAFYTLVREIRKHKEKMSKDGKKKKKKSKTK
Sequence of KRAS G12V (P01116 other isoform, or with tags, fused parts or gaps G12V): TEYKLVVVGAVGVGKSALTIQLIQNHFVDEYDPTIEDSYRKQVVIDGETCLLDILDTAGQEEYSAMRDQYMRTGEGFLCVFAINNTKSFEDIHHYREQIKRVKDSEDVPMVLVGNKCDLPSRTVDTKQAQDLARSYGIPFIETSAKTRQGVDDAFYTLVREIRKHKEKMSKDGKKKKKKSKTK
Sequence of NRAS Wild Type (P01111 2-185): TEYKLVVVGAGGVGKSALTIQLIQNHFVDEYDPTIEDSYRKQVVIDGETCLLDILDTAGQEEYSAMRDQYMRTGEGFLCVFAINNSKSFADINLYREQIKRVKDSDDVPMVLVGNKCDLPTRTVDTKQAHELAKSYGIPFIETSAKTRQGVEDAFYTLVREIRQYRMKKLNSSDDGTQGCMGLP
Sequence of KRAS Wild Type (P01116 other isoform, or with tags, fused parts or gaps): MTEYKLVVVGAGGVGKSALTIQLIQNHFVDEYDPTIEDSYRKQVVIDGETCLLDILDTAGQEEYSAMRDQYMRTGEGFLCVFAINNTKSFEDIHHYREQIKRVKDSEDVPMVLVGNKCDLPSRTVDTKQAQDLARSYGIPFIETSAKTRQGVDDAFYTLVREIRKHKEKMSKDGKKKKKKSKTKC

Consider `C/C=C1\CN2CCC[C@@]2(COc2nc3c4c(nc(-c5c(C6CC6)c(Cl)cc6[nH]ncc56)c(F)c4n2)OC[C@@H]2COCCCN32)C1` [Example 26, (8aS)-5-(6-chloro-5-cyclopropyl-1H-indazol-4-yl)-2-{[(2Z,7aS)-2-ethylidenetetrahydro-1H-pyrrolizin-7a(5H)-yl]methoxy}-4-fluoro-8a,9,12,13-tetrahydro-8H,11H-7,10-dioxa-1,3,6,13a-tetraazanaphtho[1,8-ab]heptalene], for which the dissociation constant Kd (as a rule, a measure of binding affinity in units of concentration) on KRAS G12V is 1 nM; at NRAS Wild Type, over 10000 nM; on KRAS G12D, 1 nM; on KRAS Wild Type, 2 nM; on HRAS Wild Type it was over 10000 nM; at KRAS G12C it was 1 nM. The IC50 (in general, the point on the concentration scale where inhibition reaches its midpoint) in [1] was 2 nM; in assay [2], 17 nM; in assay [3] it was 16 nM.
As to `COC/C=C1\CN2CCC[C@@]2(COc2nc3c4c(nc(-c5c(C6CC6)c(Cl)cc6[nH]ncc56)c(F)c4n2)OC[C@@H]2COCCCN32)C1` [Example 28, (8aS)-5-(6-chloro-5-cyclopropyl-1H-indazol-4-yl)-4-fluoro-2-{[(2Z,7aS)-2-(2-methoxyethylidene)tetrahydro-1H-pyrrolizin-7a(5H)-yl]methoxy}-8a,9,12,13-tetrahydro-8H,11H-7,10-dioxa-1,3,6,13a-tetraazanaphtho[1,8-ab]heptalene], the Kd was 2 nM on KRAS G12V; over 10000 nM at NRAS Wild Type; 1 nM on KRAS G12D; 3 nM at KRAS Wild Type; over 10000 nM on HRAS Wild Type; 2 nM on KRAS G12C. Moreover, the half-inhibitory concentration (IC50) was found to be 4 nM in assay [1], 19 nM in assay [2] and 26 nM in assay [3].
In the case of `C=C1CN2CCC[C@@]2(COc2nc3c4c(nc(-c5c6c(cc7[nH]ncc57)CCC[C@H]6C)c(F)c4n2)OC[C@@H]2COCCCN32)C1` [Example 29, (8aS)-4-fluoro-2-{[(7aS)-2-methylidenetetrahydro-1H-pyrrolizin-7a(5H)-yl]methoxy}-5-[(5R)-5-methyl-5,6,7,8-tetrahydro-1H-benzo[f]indazol-4-yl]-8a,9,12,13-tetrahydro-8H,11H-7,10-dioxa-1,3,6,13a-tetraazanaphtho[1,8-ab]heptalene], the Kd at KRAS G12V is 2 nM; on NRAS Wild Type, over 10000 nM; at KRAS G12D it was 1 nM; at KRAS Wild Type it was 1 nM; at HRAS Wild Type it was over 10000 nM; on KRAS G12C, 1 nM. The values for the IC50 in assay [1], in assay [2] and in assay [3] were under 1 nM, 4 nM and 8 nM, respectively.
As for `C[C@@H]1CCCc2cc3[nH]ncc3c(-c3nc4c5c(nc(OC[C@@]67CCCN6C[C@H](F)C7)nc5c3F)N3CCCOC[C@H]3CO4)c21` [Example 36, (8aS)-4-fluoro-2-{[(2R,7aS)-2-fluorotetrahydro-1H-pyrrolizin-7a(5H)-yl]methoxy}-5-[(5R)-5-methyl-5,6,7,8-tetrahydro-1H-benzo[f]indazol-4-yl]-8a,9,12,13-tetrahydro-8H,11H-7,10-dioxa-1,3,6,13a-tetraazanaphtho[1,8-ab]heptalene], the Kd at KRAS G12V is 9 nM; at NRAS Wild Type, over 10000 nM; at KRAS G12D, 3 nM; on KRAS Wild Type it was 7 nM; at HRAS Wild Type, over 10000 nM; at KRAS G12C, 5 nM. Also, the IC50 in assay [1] was 4 nM; in assay [2], 15 nM; in assay [3] it was 31 nM.
As to `COC/C=C1\CN2CCC[C@@]2(COc2nc3c4c(nc(-c5c6c(cc7[nH]ncc57)CCC[C@H]6C)c(F)c4n2)OC[C@@H]2COCCCN32)C1` [Example 37, (8aS)-4-fluoro-2-{[(2Z,7aS)-2-(2-methoxyethylidene)tetrahydro-1H-pyrrolizin-7a(5H)-yl]methoxy}-5-[(5R)-5-methyl-5,6,7,8-tetrahydro-1H-benzo[f]indazol-4-yl]-8a,9,12,13-tetrahydro-8H,11H-7,10-dioxa-1,3,6,13a-tetraazanaphtho[1,8-ab]heptalene], the Kd on KRAS G12V was 4 nM; at NRAS Wild Type, over 10000 nM; at KRAS G12D it was 2 nM; at KRAS Wild Type it was 3 nM; on HRAS Wild Type it was over 10000 nM; on KRAS G12C, 3 nM. For the same compound, the IC50 in [1] was determined as 4 nM; in [2] it was 9 nM; in assay [3], 25 nM.
With `C=C1CN2CCC[C@@]2(COc2nc3c4c(nc(-c5c(C6(C)CC6)c(Cl)cc6[nH]ncc56)c(F)c4n2)OC[C@@H]2COCCCN32)C1` [Example 39, (8aS)-5-[6-chloro-5-(1-methylcyclopropyl)-1H-indazol-4-yl]-4-fluoro-2-{[(7aS)-2-methylidenetetrahydro-1H-pyrrolizin-7a(5H)-yl]methoxy}-8a,9,12,13-tetrahydro-8H,11H-7,10-dioxa-1,3,6,13a-tetraazanaphtho[1,8-ab]heptalene], the Kd at KRAS G12V is 2 nM; at NRAS Wild Type, over 10000 nM; at KRAS G12D, 1 nM; on KRAS Wild Type, 2 nM; at HRAS Wild Type it was over 10000 nM; on KRAS G12C it was 2 nM. The values for the IC50 in [1], in assay [2] and in assay [3] were under 1 nM, 10 nM and 7 nM, respectively.
In the case of `Fc1c(-c2c(C3CC3)c(Cl)cc3[nH]ncc23)nc2c3c(nc(OC[C@@]45CCCN4CC(=C4COC4)C5)nc13)N1CCCOC[C@H]1CO2` [Example 41, (8aS)-5-(6-chloro-5-cyclopropyl-1H-indazol-4-yl)-4-fluoro-2-{[(7aS)-2-(oxetan-3-ylidene)tetrahydro-1H-pyrrolizin-7a(5H)-yl]methoxy}-8a,9,12,13-tetrahydro-8H,11H-7,10-dioxa-1,3,6,13a-tetraazanaphtho[1,8-ab]heptalene], the Kd at KRAS G12V was 4 nM; at NRAS Wild Type, over 10000 nM; at KRAS G12D, 2 nM; at KRAS Wild Type, 5 nM; on HRAS Wild Type, over 10000 nM; at KRAS G12C, 4 nM. Also, the IC50 in assay [1] turned out to be 5 nM; in assay [2] it was 25 nM; in [3], 36 nM.
`C=C1CN2CCC[C@@]2(COc2nc3c4c(nc(-c5c(C6CC6)c(Cl)cc6[nH]nc(Cl)c56)c(F)c4n2)OC[C@@H]2COCCCN32)C1` [Example 46, (8aS)-5-(3,6-dichloro-5-cyclopropyl-1H-indazol-4-yl)-4-fluoro-2-{[(7aS)-2-methylidenetetrahydro-1H-pyrrolizin-7a(5H)-yl]methoxy}-8a,9,12,13-tetrahydro-8H,11H-7,10-dioxa-1,3,6,13a-tetraazanaphtho[1,8-ab]heptalene]: the Kd at KRAS G12V was 4 nM; on NRAS Wild Type, over 10000 nM; at KRAS G12D it was 3 nM; at KRAS Wild Type, 4 nM; on HRAS Wild Type, over 10000 nM; on KRAS G12C, 3 nM. Also, the values for the IC50 in assay [1], in [2] and in assay [3] were 5 nM, 15 nM and 45 nM, respectively.
On to `C[C@@H]1CCCc2cc3[nH]ncc3c(-c3nc4c5c(nc(OC[C@@]67CCCN6CC(=C6COC6)C7)nc5c3F)N3CCCOC[C@H]3CO4)c21` [Example 47, (8aS)-4-fluoro-5-[(5R)-5-methyl-5,6,7,8-tetrahydro-1H-benzo[f]indazol-4-yl]-2-{[(7aS)-2-(oxetan-3-ylidene)tetrahydro-1H-pyrrolizin-7a(5H)-yl]methoxy}-8a,9,12,13-tetrahydro-8H,11H-7,10-dioxa-1,3,6,13a-tetraazanaphtho[1,8-ab]heptalene], for which the Kd is 4 nM on KRAS G12V; over 10000 nM at NRAS Wild Type; 2 nM on KRAS G12D; 3 nM on KRAS Wild Type; over 10000 nM on HRAS Wild Type; 4 nM on KRAS G12C. The IC50 in assay [1] was 10 nM; in assay [2] it was 14 nM; in [3], 11 nM.
On to `C/C=C1\CN2CCC[C@@]2(COc2nc3c4c(nc(-c5c6c(cc7[nH]ncc57)CCC[C@H]6C)c(F)c4n2)OC[C@@H]2COCCCN32)C1` [Example 53, (8aS)-2-{[(2Z,7aS)-2-ethylidenetetrahydro-1H-pyrrolizin-7a(5H)-yl]methoxy}-4-fluoro-5-[(5R)-5-methyl-5,6,7,8-tetrahydro-1H-benzo[f]indazol-4-yl]-8a,9,12,13-tetrahydro-8H,11H-7,10-dioxa-1,3,6,13a-tetraazanaphtho[1,8-ab]heptalene], for which the Kd is 2 nM at KRAS G12V; over 10000 nM on NRAS Wild Type; 1 nM at KRAS G12D; 1 nM at KRAS Wild Type; over 10000 nM on HRAS Wild Type; 1 nM on KRAS G12C. In addition, the values for the IC50 in assay [1], in assay [2] and in [3] were 5 nM, 8 nM and 4 nM, respectively.
